Laboratory results published in PubChem BioAssay AID1963842 (Molecular Pharmacology Branch, DTP, NCI, 2024).

Tested on: 677734-321-R-J1-PDC complex spheroid viability
Assay: Anticancer human tumor 677734-321-R-J1-PDC patient-derived soft tissue sarcoma cell line growth inhibition [POLQ]
Details: for IC50: curve of first compound; for viability, T/C: stronger effect = lower value
Outline: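 Patient-derived tumour cells were co-cultured with HUVEC and mesenchymal stem cells as multicellular spheroids at 37 °C. They were treated with POLQ inhibitors (novobiocin, ART-558, RP6685) alone or combined with other agents. Top concentrations were at or near clinical Cmax (otherwise 10 microM; SN-38 at 1 microM), decreasing in half-log steps.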

[1] = second compound 0.0316 µM, first compound 0.0316 µM
[2] = second compound 0.0316 µM, first compound 0.1 µM
[3] = second compound 0.0316 µM, first compound 0.316 µM
[4] = second compound 0.0316 µM, first compound 1 µM
[5] = second compound 0.1 µM, first compound 0.0316 µM
[6] = second compound 0.1 µM, first compound 0.1 µM
[7] = second compound 0.1 µM, first compound 0.316 µM
[8] = second compound 0.1 µM, first compound 1 µM
[9] = second compound 0.316 µM, first compound 0.0316 µM
[10] = second compound 0.316 µM, first compound 0.1 µM
[11] = second compound 0.316 µM, first compound 0.316 µM
[12] = second compound 0.316 µM, first compound 1 µM
[13] = second compound 1 µM, first compound 0.0316 µM
[14] = second compound 1 µM, first compound 0.1 µM
[15] = second compound 1 µM, first compound 0.316 µM
[16] = second compound 1 µM, first compound 1 µM
[17] = second compound 3.16 µM, first compound 0.0316 µM
[18] = second compound 3.16 µM, first compound 0.1 µM
[19] = second compound 3.16 µM, first compound 0.316 µM
[20] = second compound 3.16 µM, first compound 1 µM
[21] = second compound 10 µM, first compound 0.0316 µM
[22] = second compound 10 µM, first compound 0.1 µM
[23] = second compound 10 µM, first compound 0.316 µM
[24] = second compound 10 µM, first compound 1 µM
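Note: spheroids exposed to compounds for one week.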
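Throughout, for viability, T/C: 100% = vehicle DMSO treated spheroids.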

What does the source list for CCc1c2c(nc3ccc(O)cc13)-c1cc3c(c(=O)n1C2)COC(=O)[C@]3(O)CC + COC1C(OC(N)=O)C(O)C(Oc2ccc3c(O)c(NC(=O)c4ccc(O)c(CC=C(C)C)c4)c(=O)oc3c2C)OC1(C)C?
IC50 (second compound 0.0316 µM): < 0.00316 µM; IC50 (second compound 0.1 µM): < 0.00316 µM; IC50 (second compound 0.316 µM): < 0.00316 µM; IC50 (second compound 1 µM): < 0.00316 µM; IC50 (second compound 3.16 µM): < 0.00316 µM; IC50 (second compound 10 µM): < 0.00316 µM; viability, T/C (second compound 0.0316 µM, first compound 0.00316 µM): 28.4%; viability, T/C (second compound 0.0316 µM, first compound 0.01 µM): 11.8%; viability, T/C [1]: 4.37%; viability, T/C [2]: 3.1%; viability, T/C [3]: 2.06%; viability, T/C [4]: 1.39%; viability, T/C (second compound 0.1 µM, first compound 0.00316 µM): 30%; viability, T/C (second compound 0.1 µM, first compound 0.01 µM): 13.9%; viability, T/C [5]: 5.1%; viability, T/C [6]: 2.75%; viability, T/C [7]: 2%; viability, T/C [8]: 1.2%; viability, T/C (second compound 0.316 µM, first compound 0.00316 µM): 28.4%; viability, T/C (second compound 0.316 µM, first compound 0.01 µM): 12%; viability, T/C [9]: 4.66%; viability, T/C [10]: 2.52%; viability, T/C [11]: 6.96%; viability, T/C [12]: 2.86%; viability, T/C (second compound 1 µM, first compound 0.00316 µM): 30.1%; viability, T/C (second compound 1 µM, first compound 0.01 µM): 13.1%; viability, T/C [13]: 4.67%; viability, T/C [14]: 2.88%; viability, T/C [15]: 2.98%; viability, T/C [16]: 1.68%; viability, T/C (second compound 3.16 µM, first compound 0.00316 µM): 24.4%; viability, T/C (second compound 3.16 µM, first compound 0.01 µM): 14.4%; viability, T/C [17]: 6.11%; viability, T/C [18]: 3.15%; viability, T/C [19]: 2.62%; viability, T/C [20]: 1.16%; viability, T/C (second compound 10 µM, first compound 0.00316 µM): 32%; viability, T/C (second compound 10 µM, first compound 0.01 µM): 12.5%; viability, T/C [21]: 4.86%; viability, T/C [22]: 3.88%; viability, T/C [23]: 2.05%; viability, T/C [24]: 1.75%

With C#Cc1c(F)ccc2cc(O)cc(-c3ncc4c(N5CC6CCC(C5)N6)nc(OCC56CCCN5CC(F)C6)nc4c3F)c12 (centres undefined) + COC1C(OC(N)=O)C(O)C(Oc2ccc3c(O)c(NC(=O)c4ccc(O)c(CC=C(C)C)c4)c(=O)oc3c2C)OC1(C)C as the compound, how does the IC50 (second compound 0.0316 µM) read?
The IC50 was greater than 10 µM.

What about the IC50 (second compound 0.1 µM) of the same compound?
Its IC50 is greater than 10 µM.

And the IC50 (second compound 0.316 µM)?
Its IC50 is greater than 10 µM.

What about the IC50 (second compound 1 µM) of the same compound?
Its IC50 is greater than 10 µM.

What about the IC50 (second compound 3.16 µM) of the same compound?
The IC50 was greater than 10 µM.

And the IC50 (second compound 10 µM)?
Its IC50 is greater than 10 µM.

And the viability, T/C [1]?
Its viability, T/C is 108%.

What about the viability, T/C [2] of the same compound?
Its viability, T/C is 92.2%.

What about the viability, T/C [3] of the same compound?
The viability, T/C was 104%.

And the viability, T/C [4]?
The viability, T/C was 104%.

And the viability, T/C (second compound 0.0316 µM, first compound 3.16 µM)?
The viability, T/C was 111%.

And the viability, T/C (second compound 0.0316 µM, first compound 10 µM)?
The viability, T/C was 98%.

And the viability, T/C [5]?
The viability, T/C was 100%.

And the viability, T/C [6]?
The viability, T/C was 104%.

And the viability, T/C [7]?
Its viability, T/C is 95.1%.

And the viability, T/C [8]?
Its viability, T/C is 99.7%.

What about the viability, T/C (second compound 0.1 µM, first compound 3.16 µM) of the same compound?
Its viability, T/C is 104%.

And the viability, T/C (second compound 0.1 µM, first compound 10 µM)?
The viability, T/C was 98.7%.

What about the viability, T/C [9] of the same compound?
The viability, T/C was 108%.

What about the viability, T/C [10] of the same compound?
Its viability, T/C is 98.8%.

What about the viability, T/C [11] of the same compound?
The viability, T/C was 102%.

What about the viability, T/C [12] of the same compound?
Its viability, T/C is 107%.

What about the viability, T/C (second compound 0.316 µM, first compound 3.16 µM) of the same compound?
Its viability, T/C is 107%.

What about the viability, T/C (second compound 0.316 µM, first compound 10 µM) of the same compound?
Its viability, T/C is 102%.

And the viability, T/C [13]?
Its viability, T/C is 104%.

What about the viability, T/C [14] of the same compound?
Its viability, T/C is 97.5%.

What about the viability, T/C [15] of the same compound?
Its viability, T/C is 111%.

And the viability, T/C [16]?
Its viability, T/C is 109%.

And the viability, T/C (second compound 1 µM, first compound 3.16 µM)?
Its viability, T/C is 103%.

What about the viability, T/C (second compound 1 µM, first compound 10 µM) of the same compound?
The viability, T/C was 103%.

And the viability, T/C [17]?
Its viability, T/C is 103%.

And the viability, T/C [18]?
The viability, T/C was 95.5%.

And the viability, T/C [19]?
Its viability, T/C is 101%.

And the viability, T/C [20]?
Its viability, T/C is 105%.

And the viability, T/C (second compound 3.16 µM, first compound 3.16 µM)?
The viability, T/C was 103%.

And the viability, T/C (second compound 3.16 µM, first compound 10 µM)?
The viability, T/C was 102%.

What about the viability, T/C [21] of the same compound?
The viability, T/C was 112%.

What about the viability, T/C [22] of the same compound?
The viability, T/C was 102%.

What about the viability, T/C [23] of the same compound?
Its viability, T/C is 103%.

And the viability, T/C [24]?
Its viability, T/C is 100%.

What about the viability, T/C (second compound 10 µM, first compound 3.16 µM) of the same compound?
Its viability, T/C is 98.7%.

And the viability, T/C (second compound 10 µM, first compound 10 µM)?
The viability, T/C was 111%.
